What was measured:
[1] = DRUGMATRIX: Leukotriene, BLT (LTB4) radioligand binding (ligand: [3H]LTB4); assay type: cell membranes, Membrane; conditions: u-937; Not Active = under 50% inhibition at 10 µM
[2] = molecular target: T1, 5-hydroxytryptamine receptor 1A (Rattus norvegicus, UniProt P19327); assay type: cell membranes, CHO-K1, Membrane; conditions: cho-k1; note: in other assays of this panel Not Active means under 50% inhibition at 10 µM
T1 sequence (P19327 whole entry): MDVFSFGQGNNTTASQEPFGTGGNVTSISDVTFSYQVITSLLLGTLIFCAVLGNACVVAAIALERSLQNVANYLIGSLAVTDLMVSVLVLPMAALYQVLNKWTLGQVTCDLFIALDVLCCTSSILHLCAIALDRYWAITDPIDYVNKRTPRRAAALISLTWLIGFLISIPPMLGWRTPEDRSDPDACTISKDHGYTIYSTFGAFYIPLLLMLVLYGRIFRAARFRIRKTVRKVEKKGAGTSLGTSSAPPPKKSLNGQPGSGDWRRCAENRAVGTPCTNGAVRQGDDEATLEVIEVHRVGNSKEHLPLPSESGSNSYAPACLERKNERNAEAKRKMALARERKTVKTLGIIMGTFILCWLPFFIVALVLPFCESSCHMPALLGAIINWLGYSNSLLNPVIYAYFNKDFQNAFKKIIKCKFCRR

[3] = molecular target: Delta-type opioid receptor (Homo sapiens, UniProt P41143); assay type: cell membranes, HEK293, Membrane; conditions: hek293; note: in other assays of this panel Not Active means under 50% inhibition at 10 µM
Delta-type opioid receptor, sequence (P41143 whole entry): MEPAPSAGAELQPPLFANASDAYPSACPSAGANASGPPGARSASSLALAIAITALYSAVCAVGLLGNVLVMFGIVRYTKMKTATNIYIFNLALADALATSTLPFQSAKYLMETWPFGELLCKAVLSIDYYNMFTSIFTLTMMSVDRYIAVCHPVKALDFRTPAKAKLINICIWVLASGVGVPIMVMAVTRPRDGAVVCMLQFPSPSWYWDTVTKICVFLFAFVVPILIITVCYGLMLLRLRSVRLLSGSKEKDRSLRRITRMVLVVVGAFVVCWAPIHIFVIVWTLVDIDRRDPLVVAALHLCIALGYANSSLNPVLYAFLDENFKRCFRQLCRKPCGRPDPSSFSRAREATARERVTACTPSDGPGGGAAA

Melanocortin receptor 3 = Melanocortin receptor 3 (Homo sapiens, UniProt P41968); assay type: cell membranes, Membrane; conditions: hek293; note: in other assays of this panel Not Active means under 50% inhibition at 10 µM
Melanocortin receptor 3, sequence (P41968 whole entry): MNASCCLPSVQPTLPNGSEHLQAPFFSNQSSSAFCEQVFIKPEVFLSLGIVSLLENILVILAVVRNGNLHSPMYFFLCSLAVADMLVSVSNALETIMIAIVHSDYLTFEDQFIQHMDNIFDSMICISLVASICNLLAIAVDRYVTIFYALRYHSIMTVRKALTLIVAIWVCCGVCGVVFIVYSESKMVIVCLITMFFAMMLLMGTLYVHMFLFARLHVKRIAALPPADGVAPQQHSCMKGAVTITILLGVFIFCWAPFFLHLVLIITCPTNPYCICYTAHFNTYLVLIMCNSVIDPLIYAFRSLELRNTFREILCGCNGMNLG

[4] = molecular target: Beta-1 adrenergic receptor (Homo sapiens, UniProt P08588); assay: DRUGMATRIX: Adrenergic beta1 radioligand binding (ligand: [125I] Cyanopindolol); assay type: cell membranes, CHO-K1, Membrane; conditions: cho-k1; Not Active = under 50% inhibition at 10 µM
Beta-1 adrenergic receptor, sequence (P08588 whole entry): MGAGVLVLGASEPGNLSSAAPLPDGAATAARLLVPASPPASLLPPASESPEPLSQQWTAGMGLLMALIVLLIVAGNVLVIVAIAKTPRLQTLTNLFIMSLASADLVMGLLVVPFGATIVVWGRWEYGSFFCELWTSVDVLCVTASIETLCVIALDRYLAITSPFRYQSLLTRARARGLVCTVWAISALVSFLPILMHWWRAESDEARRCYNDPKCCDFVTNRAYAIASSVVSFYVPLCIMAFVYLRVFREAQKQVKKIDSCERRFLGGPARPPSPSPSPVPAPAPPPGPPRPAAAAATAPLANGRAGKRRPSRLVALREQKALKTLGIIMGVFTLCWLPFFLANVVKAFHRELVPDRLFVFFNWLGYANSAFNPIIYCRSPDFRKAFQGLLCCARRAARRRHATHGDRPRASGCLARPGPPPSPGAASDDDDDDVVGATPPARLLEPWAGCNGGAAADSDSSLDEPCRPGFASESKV

Melanocortin receptor 5 = Melanocortin receptor 5 (Homo sapiens, UniProt P33032); assay type: cell membranes, HEK293, Membrane; conditions: hek293; note: in other assays of this panel Not Active means under 50% inhibition at 10 µM
Melanocortin receptor 5, sequence (P33032 whole entry): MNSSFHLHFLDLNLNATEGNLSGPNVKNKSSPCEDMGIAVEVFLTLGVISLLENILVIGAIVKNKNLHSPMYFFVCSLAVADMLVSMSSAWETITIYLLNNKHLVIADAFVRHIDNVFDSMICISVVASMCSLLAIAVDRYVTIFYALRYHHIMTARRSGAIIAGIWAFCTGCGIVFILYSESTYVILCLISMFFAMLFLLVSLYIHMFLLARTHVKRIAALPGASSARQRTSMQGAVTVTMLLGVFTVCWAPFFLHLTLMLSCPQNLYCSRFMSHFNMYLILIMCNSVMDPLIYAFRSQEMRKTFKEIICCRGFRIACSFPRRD

Progesterone receptor = molecular target: T2, Progesterone receptor (Bos taurus, UniProt Q690N0); assay: DRUGMATRIX: Progesterone radioligand binding (ligand: [3H] R-5020); assay type: tissue-based, Uterus; conditions: Not Active = under 50% inhibition at 10 µM
T2 sequence (Q690N0 whole entry): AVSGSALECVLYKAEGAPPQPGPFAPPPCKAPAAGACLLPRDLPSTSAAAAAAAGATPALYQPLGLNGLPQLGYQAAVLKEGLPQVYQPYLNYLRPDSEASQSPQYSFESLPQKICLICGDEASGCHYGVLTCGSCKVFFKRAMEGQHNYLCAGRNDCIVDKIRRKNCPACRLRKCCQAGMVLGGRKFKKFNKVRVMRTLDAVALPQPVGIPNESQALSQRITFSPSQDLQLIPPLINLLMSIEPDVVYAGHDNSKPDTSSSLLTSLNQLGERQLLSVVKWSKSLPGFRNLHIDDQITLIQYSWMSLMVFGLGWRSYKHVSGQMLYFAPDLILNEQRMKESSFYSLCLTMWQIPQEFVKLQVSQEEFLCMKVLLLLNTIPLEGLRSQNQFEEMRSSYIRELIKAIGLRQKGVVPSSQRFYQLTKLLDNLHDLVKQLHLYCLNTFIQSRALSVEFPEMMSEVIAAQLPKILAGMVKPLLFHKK

[5] = DRUGMATRIX: Calcium Channel Type L, Dihydropyridine radioligand binding (ligand: [3H] Nitrendipine); assay type: cell membranes, Rattus norvegicus, Wistar, Cerebral cortex, Membrane; conditions: Not Active = under 50% inhibition at 10 µM
[6] = molecular target: T3, Vasoactive intestinal polypeptide receptor 1 (Homo sapiens, UniProt P32241); assay type: cell membranes, Membrane; conditions: ht-29; note: in other assays of this panel Not Active means under 50% inhibition at 10 µM
T3 sequence (P32241 whole entry): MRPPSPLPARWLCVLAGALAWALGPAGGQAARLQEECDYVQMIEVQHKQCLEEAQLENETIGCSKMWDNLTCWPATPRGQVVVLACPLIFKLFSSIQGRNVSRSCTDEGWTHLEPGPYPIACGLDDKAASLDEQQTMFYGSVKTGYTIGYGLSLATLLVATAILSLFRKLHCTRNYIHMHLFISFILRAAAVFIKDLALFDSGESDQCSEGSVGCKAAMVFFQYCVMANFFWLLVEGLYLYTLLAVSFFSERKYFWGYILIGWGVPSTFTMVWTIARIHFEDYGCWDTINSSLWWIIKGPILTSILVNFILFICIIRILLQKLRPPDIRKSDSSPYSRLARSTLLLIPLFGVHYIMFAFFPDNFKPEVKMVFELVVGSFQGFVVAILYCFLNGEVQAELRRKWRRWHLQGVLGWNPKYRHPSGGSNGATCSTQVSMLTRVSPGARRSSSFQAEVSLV

[7] = molecular target: Prostaglandin G/H synthase 1 (Homo sapiens, UniProt P23219); assay: biochemical; assay type: tissue-based, Platelet; conditions: platelet
Prostaglandin G/H synthase 1, sequence (P23219 whole entry): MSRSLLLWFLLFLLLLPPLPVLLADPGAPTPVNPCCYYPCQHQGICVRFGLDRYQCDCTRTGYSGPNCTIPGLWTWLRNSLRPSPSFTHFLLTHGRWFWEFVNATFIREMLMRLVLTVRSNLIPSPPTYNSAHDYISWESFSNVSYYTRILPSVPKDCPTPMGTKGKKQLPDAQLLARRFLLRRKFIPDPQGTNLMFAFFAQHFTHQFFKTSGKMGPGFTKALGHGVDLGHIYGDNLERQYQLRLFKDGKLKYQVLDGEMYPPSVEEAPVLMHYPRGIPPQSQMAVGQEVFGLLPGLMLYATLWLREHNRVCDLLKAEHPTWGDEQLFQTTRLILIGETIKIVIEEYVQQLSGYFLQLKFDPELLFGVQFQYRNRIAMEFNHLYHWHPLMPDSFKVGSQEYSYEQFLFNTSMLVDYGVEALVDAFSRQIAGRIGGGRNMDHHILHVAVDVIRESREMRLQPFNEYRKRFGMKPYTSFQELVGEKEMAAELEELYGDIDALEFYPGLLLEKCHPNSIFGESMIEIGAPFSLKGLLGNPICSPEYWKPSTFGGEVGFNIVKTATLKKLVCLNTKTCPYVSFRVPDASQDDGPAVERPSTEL

[8] = molecular target: T4, C-C chemokine receptor type 4 (Homo sapiens, UniProt P51679); assay type: cell membranes, Membrane; conditions: chem-1; note: in other assays of this panel Not Active means under 50% inhibition at 10 µM
T4 sequence (P51679 whole entry): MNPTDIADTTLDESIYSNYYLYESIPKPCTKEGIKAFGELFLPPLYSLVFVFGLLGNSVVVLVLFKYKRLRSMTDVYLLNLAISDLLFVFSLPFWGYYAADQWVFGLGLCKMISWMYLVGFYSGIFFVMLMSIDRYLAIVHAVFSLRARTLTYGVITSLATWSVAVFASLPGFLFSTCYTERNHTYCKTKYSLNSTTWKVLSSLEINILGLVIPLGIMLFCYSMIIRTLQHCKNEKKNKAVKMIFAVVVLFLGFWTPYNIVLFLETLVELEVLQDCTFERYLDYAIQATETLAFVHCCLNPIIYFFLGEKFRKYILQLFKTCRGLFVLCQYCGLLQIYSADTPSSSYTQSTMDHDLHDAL

[9] = molecular target: T5, Neuropeptide Y receptor type 1 (Homo sapiens, UniProt P25929); assay type: cell membranes, Membrane; conditions: sk-n-mc; note: in other assays of this panel Not Active means under 50% inhibition at 10 µM
T5 sequence (P25929 whole entry): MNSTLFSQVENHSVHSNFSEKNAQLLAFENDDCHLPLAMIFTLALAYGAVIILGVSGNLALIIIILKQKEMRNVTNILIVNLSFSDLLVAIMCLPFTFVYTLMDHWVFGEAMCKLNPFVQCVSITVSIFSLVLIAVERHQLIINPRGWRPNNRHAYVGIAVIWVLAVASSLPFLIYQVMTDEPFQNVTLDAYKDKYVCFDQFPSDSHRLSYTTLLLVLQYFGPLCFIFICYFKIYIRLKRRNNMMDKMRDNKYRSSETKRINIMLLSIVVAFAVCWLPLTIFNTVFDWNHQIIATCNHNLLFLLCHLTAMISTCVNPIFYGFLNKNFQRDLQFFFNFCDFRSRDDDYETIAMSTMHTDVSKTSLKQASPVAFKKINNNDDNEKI

[10] = DRUGMATRIX: Interleukin IL-1 radioligand binding (ligand: [125I] interleukin 1beta); assay type: cell membranes, Membrane; conditions: nih3t3; Not Active = under 50% inhibition at 10 µM
[11] = DRUGMATRIX: beta-Lactamase enzyme inhibition (substrate: Nitrocefin); parameters: species or system Bacillus cereus; conditions: Not Active = under 50% inhibition at 10 µM

CN(C)[C@@H]1C(O)=C(C(N)=O)C(=O)[C@@]2(O)C(O)=C3C(=O)c4c(O)cccc4[C@@](C)(O)[C@H]3C[C@@H]12 [TETRACYCLINE]
Not Active: IC50 [1] | Ki [1] | IC50 [2] | IC50 [3] | IC50 (Melanocortin receptor 3) | IC50 [4] | IC50 (Melanocortin receptor 5) | IC50 (Progesterone receptor) | IC50 [5] | Ki [5] | IC50 [6] | IC50 [7] | IC50 [8] | IC50 [9] | IC50 [10] | Ki [10] | IC50 [11] | Ki [11]

Nc1ccc(S(=O)(=O)Nc2ccnn2-c2ccccc2)cc1 [SULFAPHENAZOLE]
Not Active: IC50 [1] | Ki [1] | IC50 [2] | IC50 [3] | IC50 (Melanocortin receptor 3) | IC50 [4] | IC50 (Melanocortin receptor 5) | IC50 (Progesterone receptor) | IC50 [5] | Ki [5] | IC50 [6] | IC50 [7] | IC50 [8] | IC50 [9] | IC50 [10] | Ki [10] | IC50 [11] | Ki [11]

COc1c(C)c2c(c(O)c1C/C=C(\C)CCC(=O)OCCN1CCOCC1)C(=O)OC2 [MYCOPHENOLATE MOFETIL]
Not Active: IC50 [1] | Ki [1] | IC50 [2] | IC50 [3] | IC50 (Melanocortin receptor 3) | IC50 [4] | IC50 (Melanocortin receptor 5) | IC50 (Progesterone receptor) | IC50 [5] | Ki [5] | IC50 [6] | IC50 [7] | IC50 [8] | IC50 [9] | IC50 [10] | Ki [10] | IC50 [11] | Ki [11]

Nc1nnc(-c2cccc(Cl)c2Cl)c(N)n1 [LAMOTRIGINE]
Not Active: IC50 [1] | Ki [1] | IC50 [2] | IC50 [3] | IC50 (Melanocortin receptor 3) | IC50 [4] | IC50 (Melanocortin receptor 5) | IC50 (Progesterone receptor) | IC50 [5] | Ki [5] | IC50 [6] | IC50 [7] | IC50 [8] | IC50 [9] | IC50 [10] | Ki [10] | IC50 [11] | Ki [11]

NC(=O)c1ccccc1O [SALICYLAMIDE]
Not Active: IC50 [1] | Ki [1] | IC50 [2] | IC50 [3] | IC50 (Melanocortin receptor 3) | IC50 [4] | IC50 (Melanocortin receptor 5) | IC50 (Progesterone receptor) | IC50 [5] | Ki [5] | IC50 [6] | IC50 [7] | IC50 [8] | IC50 [9] | IC50 [10] | Ki [10] | IC50 [11] | Ki [11]

C=CC[C@@H]1/C=C(\C)C[C@H](C)C[C@H](OC)[C@H]2O[C@@](O)(C(=O)C(=O)N3CCCC[C@H]3C(=O)O[C@H](/C(C)=C/[C@@H]3CC[C@@H](O)[C@H](OC)C3)[C@H](C)[C@@H](O)CC1=O)[C@H](C)C[C@@H]2OC [TACROLIMUS ANHYDROUS]
Not Active: IC50 [1] | Ki [1] | IC50 [2] | IC50 [3] | IC50 (Melanocortin receptor 3) | IC50 [4] | IC50 (Melanocortin receptor 5) | IC50 (Progesterone receptor) | IC50 [5] | Ki [5] | IC50 [6] | IC50 [7] | IC50 [8] | IC50 [9] | IC50 [10] | Ki [10] | IC50 [11] | Ki [11]

c1ccc2[nH]c(-c3cscn3)nc2c1 [THIABENDAZOLE]
Not Active: IC50 [1] | Ki [1] | IC50 [2] | IC50 [3] | IC50 (Melanocortin receptor 3) | IC50 [4] | IC50 (Melanocortin receptor 5) | IC50 (Progesterone receptor) | IC50 [5] | Ki [5] | IC50 [6] | IC50 [7] | IC50 [8] | IC50 [9] | IC50 [10] | Ki [10] | IC50 [11] | Ki [11]

COc1ccc(C(CN(C)C)C2(O)CCCCC2)cc1 (centres undefined) [VENLAFAXINE]
Not Active: IC50 [1] | Ki [1] | IC50 [2] | IC50 [3] | IC50 (Melanocortin receptor 3) | IC50 [4] | IC50 (Melanocortin receptor 5) | IC50 (Progesterone receptor) | IC50 [5] | Ki [5] | IC50 [6] | IC50 [7] | IC50 [8] | IC50 [9] | IC50 [10] | Ki [10] | IC50 [11] | Ki [11]

Reference: ChEMBL document CHEMBL1909046, “DrugMatrix in vitro pharmacology data”
